Among the test systems are MDA-N; M19-MEL melanoma; XF 498 CNS; LXFL 529 NSCLC; HOP-18 NSCLC; KM20L2 colon; DLD-1 colon; SNB-78 CNS; RXF-631 renal.
Holding throughout (assay): NCI tumour cell line growth inhibition, 48 h

Each structure is given as a SMILES string.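 Growth conditions: 96-well plates. Treatment: test compound, 48 hours, 5 concentrations. Analysis: linear interpolation between bracketing concentrations; unreached endpoints set to highest concentration. GI50 = concentration required for 50% inhibition of growth. The concentration for full growth arrest is given as TGI.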 Some results are limits rather than exact numbers.

`Cc1[nH]n(-c2ccc(S(=O)(=O)O)cc2)c(=O)c1N=Nc1ccccc1` came in with a TGI with MDA-N above 100 µM.
Consider `CCC[CH2][Sn]1([CH2]CCC)[O]C(=O)c2cccc(OC)c2[O]1`, for which the GI50 was 0.222 µM in the assay with M19-MEL melanoma; 0.131 µM with XF 498 CNS; 0.0427 µM with LXFL 529 NSCLC; 0.687 µM in the assay with HOP-18 NSCLC; 1.33 µM in the assay on KM20L2 colon; 0.244 µM with DLD-1 colon. For the same compound, the GI50 with SNB-78 CNS was 0.093 µM. The TGI in the assay on M19-MEL melanoma is 1.23 µM; with XF 498 CNS, 0.28 µM; with LXFL 529 NSCLC, 0.212 µM; with HOP-18 NSCLC it was 1.95 µM; in the assay on KM20L2 colon, 2.68 µM; with DLD-1 colon, 0.986 µM. For the same compound, the TGI in the assay on SNB-78 CNS amounted to 0.959 µM.
`N#Cc1c(-c2ccc(Cl)cc2)c(-c2ccc(Cl)cc2)nn(CCOC(=O)CCC(=O)O)c1=O`: the TGI in the assay with M19-MEL melanoma was above 100 µM; in the assay with LXFL 529 NSCLC, above 100 µM; in the assay on HOP-18 NSCLC, above 100 µM; in the assay with KM20L2 colon, 4.89 µM; with MDA-N, 0.202 µM; in the assay on DLD-1 colon it was above 100 µM.
In turn, `CC(C)=CC(O)C/C(C)=C/CC/C(C)=C/CCC1(C)C(CCCO)/C(=C(/C)C=O)CCC1(C)O` (stereo not given) displayed a TGI in the assay on MDA-N of 52.4 µM.
`Cc1ccc(-c2nc3c(C(=O)NCCN(C)C)cccc3[nH]2)cc1`: the TGI in the assay on M19-MEL melanoma was determined as 29.7 µM; in the assay on HOP-18 NSCLC, 51.5 µM; in the assay with DLD-1 colon it was 73.2 µM; in the assay with RXF-631 renal, 31 µM; with SNB-78 CNS, 83.3 µM.
`COc1ccc(NC(=O)COC(=O)c2cccc3c(=O)c4ccccc4[nH]c23)cc1`: the TGI with M19-MEL melanoma was 39 µM; with XF 498 CNS, 36.5 µM; in the assay with LXFL 529 NSCLC, 43.3 µM; with HOP-18 NSCLC it was 93.8 µM; in the assay with KM20L2 colon it was 51.7 µM; in the assay with DLD-1 colon, 31.9 µM. This compound also returned a TGI with SNB-78 CNS of 64.2 µM.
Regarding `O=C1Cc2ccccc2N1c1c(Cl)cccc1Cl`, the TGI with M19-MEL melanoma is above 100 µM; with XF 498 CNS, 82.3 µM; in the assay on LXFL 529 NSCLC, above 100 µM; in the assay with HOP-18 NSCLC, above 100 µM; in the assay with KM20L2 colon, above 100 µM; in the assay on DLD-1 colon, above 100 µM. Further, the TGI in the assay on RXF-631 renal and in the assay on SNB-78 CNS was above 100 µM in each case.
In the assay on MDA-N, `CCCC(=O)Nc1cc([N+](=O)[O-])c([N+](=O)[O-])cc1OC` gave a TGI of 30.6 µM.
Regarding `CCCCCCCCCCCCCC(=O)OC(/C=C/C(C)C)C(O)C(O)C(OC)C(=O)NC1CCCCNC1=O` (stereo not given), the TGI in the assay on XF 498 CNS came out at 5.47 µM; in the assay on LXFL 529 NSCLC, 4.88 µM; in the assay with HOP-18 NSCLC, 10.5 µM; with KM20L2 colon, 4.89 µM; in the assay on DLD-1 colon, 5.07 µM; in the assay with SNB-78 CNS, 9.18 µM.
`CNc1cccnc1/C=N/NC(N)=S` gave a TGI with MDA-N above 10 µM.
Take `S=P1(c2ccccc2)Nc2ccc(Cl)cc2N1` (stereo not given): the TGI with M19-MEL melanoma is 67.2 µM; in the assay on XF 498 CNS, above 100 µM; in the assay on LXFL 529 NSCLC it was above 100 µM; with HOP-18 NSCLC it was above 100 µM; in the assay with KM20L2 colon it was above 100 µM; with DLD-1 colon it was above 100 µM. The TGI in the assay on RXF-631 renal and in the assay on SNB-78 CNS was above 100 µM in each case.
Take `CCN(CC)CCC(=O)N1CCc2c([nH]c3ccccc23)C1c1cccnc1` (stereo not given): the TGI in the assay on M19-MEL melanoma, with XF 498 CNS, in the assay with LXFL 529 NSCLC, in the assay on HOP-18 NSCLC, in the assay with KM20L2 colon and in the assay on DLD-1 colon was above 100 µM each time. The compound also displayed a TGI in the assay on SNB-78 CNS above 100 µM.
`CN(C)c1ccc(/C=C/c2ccnc3ccccc23)cc1N` yielded a TGI in the assay on MDA-N of 12 µM.
Consider `CC(=O)OC1(C#N)CC2OC1C1C2N1C(=O)OC(C)(C)C` (stereo not given), for which the TGI in the assay on M19-MEL melanoma, with XF 498 CNS, in the assay on LXFL 529 NSCLC, in the assay on KM20L2 colon, in the assay on DLD-1 colon and with SNB-78 CNS was above 100 µM each time.
`N#CCC12CC=CCC1=C(O)C(=O)c1ccc(O)cc12` (stereo not given) displayed a TGI in the assay on MDA-N above 100 µM.
On to `COc1ccc(CC2NCCc3cc(OC)c(OC)cc32)cc1` (stereo not given), for which the TGI with M19-MEL melanoma, in the assay on XF 498 CNS, with LXFL 529 NSCLC, with HOP-18 NSCLC, with KM20L2 colon and in the assay on DLD-1 colon was above 100 µM in each case. For the same compound, the TGI in the assay with RXF-631 renal and with SNB-78 CNS was above 100 µM each time.
On to `CC1CC(=O)C(CC(=O)O)C1C(C(=O)C(=O)Nc1c(C#N)cccc1[N+](=O)[O-])[N+](=O)[O-]` (stereo not given), for which the TGI with M19-MEL melanoma, in the assay with XF 498 CNS, with LXFL 529 NSCLC, with KM20L2 colon, in the assay with DLD-1 colon and with SNB-78 CNS was above 100 µM in each case.
Regarding `Oc1ccc2c3c1OC1C(=NN=C4CCC5(O)C6Cc7ccc(O)c8c7C5(CCN6CC5CC5)C4O8)CCC4(O)C(C2)N(CC2CC2)CCC314` (stereo not given), the TGI with M19-MEL melanoma was 40.9 µM; in the assay on XF 498 CNS it was 34.3 µM; in the assay with LXFL 529 NSCLC, 43.5 µM; with HOP-18 NSCLC, above 100 µM; with KM20L2 colon, 41.7 µM; in the assay with DLD-1 colon it was above 100 µM. The compound further had a TGI in the assay with SNB-78 CNS above 100 µM.
Regarding `O=C1CCCC(=O)C1=C(O)CCCCCCCCCCc1ccccc1`, the TGI is 97.9 µM in the assay with M19-MEL melanoma; above 100 µM with XF 498 CNS; above 100 µM in the assay with LXFL 529 NSCLC; above 100 µM in the assay with HOP-18 NSCLC; above 100 µM with KM20L2 colon; above 100 µM in the assay with DLD-1 colon. The compound also returned a TGI in the assay on SNB-78 CNS above 100 µM.
Take `C=CCC12CC(=O)C=C1CCC1(C2)OCCO1` (stereo not given): the TGI in the assay with M19-MEL melanoma, in the assay with LXFL 529 NSCLC, in the assay with HOP-18 NSCLC, with KM20L2 colon, in the assay with DLD-1 colon and with RXF-631 renal was above 100 µM throughout. The same compound had a TGI in the assay with SNB-78 CNS above 100 µM.
In the assay with MDA-N, `O=C1Nc2ccccc2/C1=C/c1ccccc1` displayed a TGI of 40.7 µM.
`Oc1ccc2ccccc2c1C(c1ccc(Cl)cc1)c1c(O)ccc2ccccc12` gave a TGI in the assay on MDA-N of 12.2 µM.

The values above are taken from PubChem BioAssay (NCI).
